Measurements: patent US7285682B2, “Terphenyl guanidines as β-secretase inhibitors” (Wyeth, priority 2005, dated 2007)

Experiments:
[1] = target: human BACE1 (Homo sapiens, UniProt P56817); test: Fluorescent kinetic assay (BACE-1, FRET peptide substrate WABC-6); assay type: biochemical; conditions: 10 nM enzyme, 25 μM substrate WABC-6, 50 mM Na-Acetate pH 4.5, room temperature
Procedure: Evaluation of BACE-1 Binding Affinity of Test Compounds
1. Fluorescent Kinetic Assays • Final Assay Conditions: 10 nM human BACE1 (or 10 nM Murine BACE1, 1.5 nM human BACE2), 25 μM substrate (WABC-6, MW 1549.6, from AnaSpec), Buffer: 50 mM Na-Acetate, pH 4.5, 0.05% CHAPS, 25% PBS, room temperature. Na-Acetate was from Aldrich, Cat.# 24,124-5, CHAPS was from Research Organics, Cat. # 1304C 1×, PBS was from Mediatech (Cellgro), Cat# 21-031-CV, peptide substrate AbzSEVNLDAEFRDpa was from AnaSpec, Peptide Name: WABC-6 • Determination of stock substrate (AbzSEVNLDAEFRDpa) concentration: ˜25 mM stock solution is made in DMSO using the peptide weight and MW, and diluted to ˜25 μM (1:1000) in 1×PBS. Concentration is determined by absorbance at 354 nm using an extinction coefficient ε of 18172 M^−1 cm^−1, the concentration of stock substrate is corrected, and the substrate stock stored in small aliquots in −80° C. [Substrate Stock]=ABS^354 nm*10^6/18172 ([…]) The extinction coefficient ε^354 nm was adapted from TACE peptide substrate, which had the same quencher-fluorophore pair. • Determination of Stock Enzyme Concentration: the stock concentration of each enzyme is determined by absorbance at 280 nm using ε of 64150 M^−1 cm^−1 for hBACE1 and MuBACE1, 62870 M^−1 cm^−1 for hBACE2 in 6 M Guanidinium Hydrochloride (from Research Organics, Cat. # 5134G-2), pH ˜6. The extinction Coefficient ε^280 nm for each enzyme was calculated based on known amino acid composition and published extinction coefficients for Trp ([…]) and Tyr ([…]) residues (Anal. Biochem. 182, 319-326). • Dilution and mixing steps: total reaction volume: 100 μL
2× inhibitor dilutions in buffer A (66.7 mM Na-Acetate, pH 4.5, 0.0667% CHAPS) were prepared,
4× enzyme dilution in buffer A (66.7 mM Na-Acetate, pH 4.5, 0.0667% CHAPS) were prepared,
100 μM substrate dilution in 1×PBS was prepared, and […]

human BACE1, sequence (P56817 46-501): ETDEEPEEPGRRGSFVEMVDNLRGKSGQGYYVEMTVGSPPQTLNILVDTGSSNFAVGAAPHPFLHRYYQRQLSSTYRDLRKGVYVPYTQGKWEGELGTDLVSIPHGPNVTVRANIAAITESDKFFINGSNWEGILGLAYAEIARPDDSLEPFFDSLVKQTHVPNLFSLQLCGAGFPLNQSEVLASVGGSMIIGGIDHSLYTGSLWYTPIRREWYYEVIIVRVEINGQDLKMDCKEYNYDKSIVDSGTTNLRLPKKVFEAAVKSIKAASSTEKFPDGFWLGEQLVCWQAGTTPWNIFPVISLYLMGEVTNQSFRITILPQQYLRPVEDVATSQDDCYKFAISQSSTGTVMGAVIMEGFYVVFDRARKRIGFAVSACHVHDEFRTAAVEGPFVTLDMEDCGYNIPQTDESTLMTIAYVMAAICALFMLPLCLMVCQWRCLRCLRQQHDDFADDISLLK

Row | IC50 [1] | melting point | Structure (SMILES)
1 | 15 µM | 64 to 67 °C | N=C(N)NC(=O)Cc1c(-c2ccccc2)cccc1-c1ccccc1.O=C(O)C(F)(F)F [Example 1, N-(1,1′:3′,1″-Terphenyl-2′-ylacetyl)guanidine TFA salt]
2 | 29.6 µM | 36.8 to 36.9 °C | N=C(N)NC(=O)Cc1c(-c2ccccc2)cccc1-c1ccc2ccccc2c1 [Example 2, N-{[3-(2-Naphthyl)-1,1′-biphenyl-2-yl]acetyl}guanidine]
3 | 13.9 µM | 171 to 174 °C | CC(C)(C)c1ccc(-c2cccc(-c3ccccc3)c2CC(=O)NC(=N)N)cc1 [Example 3, N-[(4-tert-Butyl-1,1′:3′,1″-terphenyl-2′-yl)acetyl]guanidine]
4 | 5.95 µM | – | NC(N)=NC(=O)Cc1c(-c2ccccc2)cccc1-c1ccc(Oc2ccccc2)cc1 [Example 4, N″-[(4-Phenoxy-1,1′:3′,1″-terphenyl-2′-yl)acetyl]guanidine]
